Measurements as given in US7186879B2, “Screening systems and methods for identifying modulators of xenobiotic metabolism” (Baylor College of Medicine, priority 2001, dated 2007).
Entries after “also recorded” stand apart in the source; their conditions may differ.

What was measured:
[1] = target: T1, human CAR (Homo sapiens, UniProt Q14994); assay: Sensitivity of CAR humanized mice to APAP, serum ALT; set-up: expressed in transfected cells; host or cells: liver of transgenic C57BL/6 mice (line 6210, albumin promoter), crossed onto the murine CAR -/- background; conditions: CAR humanized mice pretreated three days, APAP 250 mg/kg
T1 sequence (Q14994 1-348 isoform Q14994-2): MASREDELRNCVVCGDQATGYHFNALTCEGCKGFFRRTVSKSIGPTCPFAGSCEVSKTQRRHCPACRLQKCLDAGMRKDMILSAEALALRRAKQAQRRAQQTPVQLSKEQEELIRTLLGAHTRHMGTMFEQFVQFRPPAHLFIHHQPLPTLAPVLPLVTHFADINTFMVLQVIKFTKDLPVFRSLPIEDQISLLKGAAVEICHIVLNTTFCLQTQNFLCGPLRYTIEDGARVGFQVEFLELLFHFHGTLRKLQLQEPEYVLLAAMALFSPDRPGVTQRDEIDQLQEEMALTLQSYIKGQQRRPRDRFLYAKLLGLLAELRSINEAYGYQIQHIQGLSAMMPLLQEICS
Procedure: FIG. 13 illustrates the sensitivity of CAR humanized mice to APAP. CAR humanized mice (n=3) were pretreated with phenobarbital (PB) or vehicle alone for three days and administered a 250 mg/kg dose of APAP by intraperitoneal injection. Serum was collected and alanine aminotransferase (ALT) levels were measured after 24 hours.

[2] = target: T2, murine CAR receptor (Mus musculus, UniProt O35627, M138L); conditions: cited from earlier work
T2 sequence (O35627 1-358 M138L): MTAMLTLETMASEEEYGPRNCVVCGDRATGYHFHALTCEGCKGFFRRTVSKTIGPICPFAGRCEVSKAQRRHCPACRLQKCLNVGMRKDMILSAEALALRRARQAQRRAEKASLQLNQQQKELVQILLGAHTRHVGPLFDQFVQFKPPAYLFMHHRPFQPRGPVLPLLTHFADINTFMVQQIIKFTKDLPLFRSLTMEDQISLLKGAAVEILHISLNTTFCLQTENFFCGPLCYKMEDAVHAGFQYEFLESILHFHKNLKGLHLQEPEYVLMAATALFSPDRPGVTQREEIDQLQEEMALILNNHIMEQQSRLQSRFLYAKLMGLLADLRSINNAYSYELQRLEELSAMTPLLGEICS

[3] = tested on: wild-type and CAR −/− mice; conditions: acute treatment (Heubel et al.); cited from earlier work

SMILES	sensitivity to APAP [1]	activity on murine CAR receptor [2]	increase in liver mass relative to total body mass [3]
CCC1(c2ccccc2)C(=O)NC(=O)NC1=O [PB, phenobarbital]	increased sensitivity to APAP		
Clc1cnc(Oc2ccc(Oc3ncc(Cl)cc3Cl)cc2)c(Cl)c1 [TCPOBOP, 1,4-bis[2-(3,5-dichloropyridyloxy)]benzene]		agonist ligand; also recorded: activate murine CAR	up to 2 fold
